How the values were obtained:
[1] = system: monoamine oxidase enzyme Type-B (MAO-B); settings: cited from earlier work
[2] = 80° C.-100° C., presence of a chloride ion source and low pH

Row | Structure (SMILES) | MAO-B inhibitory activity [1] | degree of selectivity for MAO-B inhibition ([1]; compared with the corresponding racemic form) | chlorination of the triple bond to form chlorinated allyl aminoindans (2-chloro and cis-3-chloro) [2]
1 | C#CCN[C@@H]1CCc2ccccc21 [(R)-PAI, N-propargyl-1(R)-aminoindan] | active MAO-B inhibitor | surprisingly higher than that of the corresponding racemic form | –
2 | C#CCN[C@H]1CCc2ccccc21 [(S)-PAI] | extremely low MAO-B inhibitory activity | – | –
3 | C#CCN[C@@H]1CCc2ccccc21.CS(=O)(=O)O [rasagiline mesylate, N-propargyl-1(R)-aminoindan mesylate] | – | – | susceptible to chlorination

Source: US7598420B1, “Rasagiline formulations and processes for their preparation” (Teva Pharmaceutical Industries, Ltd., priority 2005, dated 2009)
